Reference: ChEMBL document CHEMBL3603757, “Discovery of a novel tricyclic 4H-thiazolo[5',4':4,5]pyrano[2,3-c]pyridine-2-amino scaffold and its application in a PI3Kα inhibitor with high PI3K isoform selectivity and potent cellular activity” (Bioorg Med Chem Lett, 2015)
≈ marks a conversion by molar mass, not a printed value.

Tests used:
[1] = biological target: T1, Phosphatidylinositol 4,5-bisphosphate 3-kinase catalytic subunit alpha isoform (Homo sapiens, UniProt P42336); assay: Inhibition of myristoylated human P110alpha expressed in Rat1 cells assessed as inhibition of Akt phosphorylation at Serine 473 by Western blot analysis; format: cell-based
[2] = Clearance in Sprague-Dawley rat at 1 mg/kg, iv; format: ADME, organism-based; settings: in vivo
[3] = biological target: T2, Phosphatidylinositol 4,5-bisphosphate 3-kinase catalytic subunit beta isoform (Homo sapiens, UniProt P42338); assay: Inhibition of P110beta (unknown origin) by Kinase-Glo assay
[4] = test system: Rattus norvegicus; assay: Dose normalized AUC in Sprague-Dawley rat at 1 mg/kg, iv; format: ADME, organism-based; settings: in vivo
[5] = Volume of distribution at steady state in Sprague-Dawley rat at 1 mg/kg, iv; format: ADME, organism-based; settings: in vivo, read-out: Vdss
[6] = Solubility of the compound in […]; format: physicochemical
[7] = biological target: T1, Phosphatidylinositol 4,5-bisphosphate 3-kinase catalytic subunit alpha isoform; assay: Inhibition of P110alpha (unknown origin) by Kinase-Glo assay
[8] = Solubility of the compound in water at pH 6.8; format: physicochemical
[9] = Tmax in Sprague-Dawley rat at 3 mg/kg, po; format: ADME, organism-based; settings: in vivo
[10] = test system: Rattus norvegicus; assay: Dose normalized AUC in Sprague-Dawley rat at 3 mg/kg, po; format: ADME, organism-based; settings: in vivo
[11] = Terminal half life in Sprague-Dawley rat at 1 mg/kg, iv; format: ADME, organism-based; settings: in vivo, read-out: beta t1/2 (converted)
[12] = biological target: T2, Phosphatidylinositol 4,5-bisphosphate 3-kinase catalytic subunit beta isoform; assay: Inhibition of myristoylated human P110beta expressed in Rat1 cells assessed as inhibition of Akt phosphorylation at Serine 473 by Western blot analysis; format: cell-based
[13] = test system: Rattus norvegicus; assay: Dose normalized Cmax in Sprague-Dawley rat at 3 mg/kg, po; format: ADME, organism-based; settings: in vivo
[14] = Plasma protein binding in rat; format: ADME, cell-free; settings: read-out: PPB (converted)
[15] = Oral bioavailability in Sprague-Dawley rat at 3 mg/kg; format: ADME, organism-based; settings: in vivo
[16] = biological target: Phosphatidylinositol 4,5-bisphosphate 3-kinase catalytic subunit gamma isoform (Homo sapiens, UniProt P48736); assay: Inhibition of P110gamma (unknown origin) using PI or PIP2:PS as substrate measured for 15 to 60 mins by TR-FRET analysis
[17] = Solubility of the compound in water at pH 4; format: physicochemical
[18] = biological target: T3, Phosphatidylinositol 4,5-bisphosphate 3-kinase catalytic subunit delta isoform (Homo sapiens, UniProt O00329); assay: Inhibition of P110delta (unknown origin) using PI or PIP2:PS as substrate measured for 15 to 60 mins by TR-FRET analysis
T3 sequence (O00329 whole entry): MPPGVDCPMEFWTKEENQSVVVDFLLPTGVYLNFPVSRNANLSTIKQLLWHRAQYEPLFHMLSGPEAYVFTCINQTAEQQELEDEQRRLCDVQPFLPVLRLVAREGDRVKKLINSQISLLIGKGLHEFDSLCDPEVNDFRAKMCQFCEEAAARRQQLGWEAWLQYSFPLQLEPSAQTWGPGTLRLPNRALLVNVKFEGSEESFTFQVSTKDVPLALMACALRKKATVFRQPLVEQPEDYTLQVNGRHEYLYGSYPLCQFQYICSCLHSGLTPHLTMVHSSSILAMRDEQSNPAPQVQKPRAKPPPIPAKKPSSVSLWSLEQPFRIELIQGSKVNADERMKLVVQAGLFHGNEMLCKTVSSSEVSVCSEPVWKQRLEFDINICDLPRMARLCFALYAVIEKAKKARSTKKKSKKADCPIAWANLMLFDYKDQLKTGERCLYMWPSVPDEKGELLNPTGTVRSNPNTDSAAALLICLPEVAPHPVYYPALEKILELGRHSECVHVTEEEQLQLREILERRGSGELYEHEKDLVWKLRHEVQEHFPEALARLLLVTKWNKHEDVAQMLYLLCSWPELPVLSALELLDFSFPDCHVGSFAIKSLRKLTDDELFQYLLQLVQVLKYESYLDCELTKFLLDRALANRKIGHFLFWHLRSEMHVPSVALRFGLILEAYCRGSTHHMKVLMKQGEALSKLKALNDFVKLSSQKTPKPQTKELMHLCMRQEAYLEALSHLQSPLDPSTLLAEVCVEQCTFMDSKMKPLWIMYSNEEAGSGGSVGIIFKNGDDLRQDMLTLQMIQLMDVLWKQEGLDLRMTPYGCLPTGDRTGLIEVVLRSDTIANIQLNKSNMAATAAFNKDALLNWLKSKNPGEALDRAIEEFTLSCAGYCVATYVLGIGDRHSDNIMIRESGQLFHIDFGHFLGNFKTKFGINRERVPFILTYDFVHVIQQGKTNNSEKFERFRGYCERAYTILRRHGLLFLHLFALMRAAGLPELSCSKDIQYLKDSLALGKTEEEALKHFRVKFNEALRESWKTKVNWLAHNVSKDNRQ

[19] = biological target: T3, Phosphatidylinositol 4,5-bisphosphate 3-kinase catalytic subunit delta isoform; assay: Inhibition of myristoylated human P110delta expressed in Rat1 cells assessed as inhibition of Akt phosphorylation at Serine 473 by Western blot analysis; format: cell-based

T1 sequence (P42336 whole entry, canonical isoform): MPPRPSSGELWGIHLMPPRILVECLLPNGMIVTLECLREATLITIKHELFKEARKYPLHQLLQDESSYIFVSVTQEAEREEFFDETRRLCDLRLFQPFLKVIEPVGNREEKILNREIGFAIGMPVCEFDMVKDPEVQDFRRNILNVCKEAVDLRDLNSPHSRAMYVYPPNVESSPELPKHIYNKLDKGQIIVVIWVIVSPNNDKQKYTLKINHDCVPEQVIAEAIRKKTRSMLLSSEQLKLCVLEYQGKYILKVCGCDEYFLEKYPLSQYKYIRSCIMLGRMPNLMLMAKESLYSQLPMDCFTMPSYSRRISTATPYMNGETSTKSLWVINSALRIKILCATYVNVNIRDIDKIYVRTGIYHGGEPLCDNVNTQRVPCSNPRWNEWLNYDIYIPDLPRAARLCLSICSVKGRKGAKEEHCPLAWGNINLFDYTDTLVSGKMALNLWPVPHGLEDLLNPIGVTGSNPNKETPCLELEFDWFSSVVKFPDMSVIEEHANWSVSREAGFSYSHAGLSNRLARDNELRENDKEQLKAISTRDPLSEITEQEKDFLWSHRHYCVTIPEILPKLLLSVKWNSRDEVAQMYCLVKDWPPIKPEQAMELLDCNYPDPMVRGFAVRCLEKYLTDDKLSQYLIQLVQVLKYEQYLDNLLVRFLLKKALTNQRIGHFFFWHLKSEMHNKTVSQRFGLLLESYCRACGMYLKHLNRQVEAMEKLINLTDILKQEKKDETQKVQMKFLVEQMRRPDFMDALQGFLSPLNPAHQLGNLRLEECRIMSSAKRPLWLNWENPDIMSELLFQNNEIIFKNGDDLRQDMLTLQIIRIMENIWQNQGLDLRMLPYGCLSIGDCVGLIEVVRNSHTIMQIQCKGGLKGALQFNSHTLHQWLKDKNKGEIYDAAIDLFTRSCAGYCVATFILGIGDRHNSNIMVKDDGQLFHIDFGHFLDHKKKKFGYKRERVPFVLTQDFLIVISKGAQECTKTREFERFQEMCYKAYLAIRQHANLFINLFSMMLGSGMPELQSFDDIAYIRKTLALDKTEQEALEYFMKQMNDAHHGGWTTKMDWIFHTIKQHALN
T2 sequence (P42338 whole entry, canonical isoform): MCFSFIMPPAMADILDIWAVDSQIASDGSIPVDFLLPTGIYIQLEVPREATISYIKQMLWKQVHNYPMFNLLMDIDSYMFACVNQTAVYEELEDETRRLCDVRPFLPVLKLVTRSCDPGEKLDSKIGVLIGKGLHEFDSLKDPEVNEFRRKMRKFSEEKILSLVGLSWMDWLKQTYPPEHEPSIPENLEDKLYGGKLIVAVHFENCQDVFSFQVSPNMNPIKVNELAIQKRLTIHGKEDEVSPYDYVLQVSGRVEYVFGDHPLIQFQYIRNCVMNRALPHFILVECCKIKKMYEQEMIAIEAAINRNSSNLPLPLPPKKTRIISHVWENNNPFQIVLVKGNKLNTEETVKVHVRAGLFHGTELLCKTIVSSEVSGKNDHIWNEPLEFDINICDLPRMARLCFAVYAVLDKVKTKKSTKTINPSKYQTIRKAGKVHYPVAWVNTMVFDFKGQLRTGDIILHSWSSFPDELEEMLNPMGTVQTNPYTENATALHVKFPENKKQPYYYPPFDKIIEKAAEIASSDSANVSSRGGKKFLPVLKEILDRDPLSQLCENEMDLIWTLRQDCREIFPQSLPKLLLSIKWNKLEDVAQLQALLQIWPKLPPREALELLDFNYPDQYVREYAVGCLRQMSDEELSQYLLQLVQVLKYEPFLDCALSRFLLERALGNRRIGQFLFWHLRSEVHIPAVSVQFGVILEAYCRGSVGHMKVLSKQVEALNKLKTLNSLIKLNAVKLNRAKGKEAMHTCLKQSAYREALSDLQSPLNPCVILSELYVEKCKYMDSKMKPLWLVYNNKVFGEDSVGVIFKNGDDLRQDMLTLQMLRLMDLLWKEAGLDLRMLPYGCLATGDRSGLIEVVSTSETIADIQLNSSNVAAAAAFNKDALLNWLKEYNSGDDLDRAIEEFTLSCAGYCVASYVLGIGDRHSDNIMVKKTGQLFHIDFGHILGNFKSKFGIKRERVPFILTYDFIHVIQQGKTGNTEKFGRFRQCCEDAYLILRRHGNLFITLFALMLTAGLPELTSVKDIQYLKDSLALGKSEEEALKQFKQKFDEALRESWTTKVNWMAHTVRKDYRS
Sequence of Phosphatidylinositol 4,5-bisphosphate 3-kinase catalytic subunit gamma isoform (P48736 whole entry, canonical isoform): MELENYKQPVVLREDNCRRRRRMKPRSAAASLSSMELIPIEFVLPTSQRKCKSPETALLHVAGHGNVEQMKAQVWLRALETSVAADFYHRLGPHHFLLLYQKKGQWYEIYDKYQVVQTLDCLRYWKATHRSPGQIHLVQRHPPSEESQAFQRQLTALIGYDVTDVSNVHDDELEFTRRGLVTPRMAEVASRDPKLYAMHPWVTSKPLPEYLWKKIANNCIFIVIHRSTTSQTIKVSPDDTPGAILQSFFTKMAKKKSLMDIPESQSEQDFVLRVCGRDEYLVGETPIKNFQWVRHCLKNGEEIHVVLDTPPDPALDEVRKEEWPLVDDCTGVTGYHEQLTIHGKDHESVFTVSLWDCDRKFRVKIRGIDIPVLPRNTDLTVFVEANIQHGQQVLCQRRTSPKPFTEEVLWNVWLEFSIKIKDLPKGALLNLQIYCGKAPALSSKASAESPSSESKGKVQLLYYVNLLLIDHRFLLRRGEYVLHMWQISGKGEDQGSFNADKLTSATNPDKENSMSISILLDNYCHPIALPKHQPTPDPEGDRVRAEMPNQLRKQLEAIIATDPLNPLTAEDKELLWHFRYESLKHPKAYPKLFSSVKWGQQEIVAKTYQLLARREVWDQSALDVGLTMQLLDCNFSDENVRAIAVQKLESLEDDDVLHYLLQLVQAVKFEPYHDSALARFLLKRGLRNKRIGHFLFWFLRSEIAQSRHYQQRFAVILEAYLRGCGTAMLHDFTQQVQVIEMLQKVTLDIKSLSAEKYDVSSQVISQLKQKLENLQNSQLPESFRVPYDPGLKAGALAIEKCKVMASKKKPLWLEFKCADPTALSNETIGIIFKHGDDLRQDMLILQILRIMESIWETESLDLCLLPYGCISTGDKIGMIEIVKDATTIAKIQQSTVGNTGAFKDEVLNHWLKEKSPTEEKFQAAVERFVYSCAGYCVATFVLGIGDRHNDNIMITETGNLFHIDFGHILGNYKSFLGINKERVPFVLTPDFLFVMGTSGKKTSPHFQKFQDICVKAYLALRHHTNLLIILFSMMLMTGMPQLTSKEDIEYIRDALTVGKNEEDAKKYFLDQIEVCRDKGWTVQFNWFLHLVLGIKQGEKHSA

IC50 [1] [nM] | clearance [2] [mL/min/kg] | IC50 [3] [nM] | AUC/dose [4] [nM·h] | Vd [5] [L/kg] | solubility [6] [µM] | IC50 [7] [nM] | solubility [8] [µM] | Tmax [9] [h] | AUC/dose [10] [nM·h] | half-life [11] [h] | IC50 [12] [nM] | Cmax/dose [13] [nM] | fraction unbound [14] | bioavailability [15] [%] | IC50 [16] [nM] | solubility [17] [µM] | IC50 [18] [nM] | IC50 [19] [nM] | Compound
11 | 27 | 670 | 1368 | 1.8 | 410 (≈ 192 µg/mL) | 5 | 260 (≈ 122 µg/mL) | 1.2 | 228 | 1.4 | 1110 | 61 | 0.033 | 17 | 200 | 450 (≈ 211 µg/mL) | 220 | 540 | C[C@@H]1CCN(C(=O)Nc2nc3c(s2)-c2cc(C(C)(C)C(F)(F)F)ncc2OC3)[C@@H]1C(N)=O
19 |  | 1040 |  |  | 31 (≈ 14.1 µg/mL) | 19 | 23 (≈ 10.5 µg/mL) |  |  |  | 2000 |  |  |  | 230 | 35 (≈ 15.9 µg/mL) | 390 | 616 | Cc1nc(NC(=O)N2CC[C@@H](C)[C@H]2C(N)=O)sc1-c1ccnc(C(C)(C)C(F)(F)F)c1
